Reference: patent US5698411A, “Method for determining activity of enzymes in metabolically active whole cells” (priority 1995, dated 1997)

Tests used:
cathepsin B = conditions: cited from earlier work
[1] = tested on: metabolically active cell; conditions: even when buffered
Protocol: Viability is confirmed with Trypan Blue or PI-FDA over a time period of 10 seconds to 30 minutes. If the viability of the cell sample at between one and three million cells/mL decreases by 10% then the salt of the compound is rejected and another salt of the assay compound is synthesized.

dipeptide reagent = assay: effect of sodium chloride on dipeptide reagent; assay type: biochemical; conditions: 7 mM, pH 6.5 to 8.7
From the text: Inhibitors and poisons (or toxins) are components that can be added to reduce the activity of non-targeted enzymes that provide competing reactions for the leaving group. Inhibitors are usually very selective for a particular enzyme. For example, EDTA only works with enzymes requiring Ca^+2, Mg^+2 and some other metals. […] Preferred inhibitors for particular enzymes are included in Table 1.

[2] = tested on: substituted rhodamine 110 substrates; assay: modulator effect on substituted rhodamine 110 substrates; assay type: biochemical
From the text: Modulators are components used to […] the sensitivity of the enzyme for the leaving group. The modulators speed up or slow down the activity of an enzyme by changing the active site. […] Preferred modulators for particular enzymes are included in Table 1.

[3] = tested on: acute lympholytic Ficoll prepared lymphocytes; assay: amino peptidase activity in acute lymphocytic leukemia lymphocytes; assay type: cell-based, human; conditions: FIG. 4B
From the text: The cell's ability to fight off an invader lies within its genetics and therefore cell type. The "readiness" however of any genetically capable group of cells to defend is different. A measure of this "readiness" is manifest in the available proteolytic enzymes contained within vacuoles or on the surface of the cell. The assay compound hydrolysis rate increases with increased mass of enzymes giving a picture of immune competence both in number of cells and activity level. […] Images were generated using Universal Imaging.

granulocytes [4] = assay: aberrant enzyme activities in febrile children, granulocytes (Table 7); assay type: cell-based, human
monocytes [5] = assay: aberrant enzyme activities in febrile children, monocytes (Table 7); assay type: cell-based, human
lymphocytes [6] = assay: aberrant enzyme activities in febrile children, lymphocytes (Table 7); assay type: cell-based, human
[7] = tested on: metabolically active whole cell; assay: substrate panel in normals and HIV + patients, TB infection (Table 4); assay type: cell-based, human; design: unit not given here
Protocol: A panel of assay compounds are assembled consisting of Ala-aminopeptidase and Lys-aminopeptidase, Dipeptidyl peptidase IV (Ala-Ala)2 rhodamine 110 and Cathepsin D to indicate possible TB infection in AIDS related cases.
A panel Of enzymatic substrates is performed consisting of Ala-aminopeptidase and Lys-aminopeptidase, Dipeptidyl peptidase IV (Ala-Ala)2 rhodamine 110 and Cathepsin D to indicate possible TB infection in AIDS related cases.

aminopeptidase [8] = assay: inhibition of aminopeptidase reaction with (H-L-Asp)2 rhodamine 110; assay type: biochemical; conditions: approximately 10 mM; substrate (H-L-Asp)2 rhodamine 110
From the text: The chemical nature of the buffer is important to the reactivity Of the assay compound with the cellular enzymes. […] In addition, the assay compound hydrolysis by the enzyme occurs at an increased rate of reaction.

monocytes [9] = assay: enzyme activity with fluorogenic substrate, normal monocytes (Table 3A); assay type: cell-based, human
lymphocytes [10] = assay: enzyme activity with fluorogenic substrate, normal lymphocytes (Table 3A); assay type: cell-based, human
erythrocytes = assay: enzyme activity with fluorogenic substrate, normal erythrocytes (Table 3B); assay type: cell-based, human
granulocytes [11] = assay: enzyme activity with fluorogenic substrate, normal granulocytes (Table 3A); assay type: cell-based, human
aminopeptidase [12] = conditions: cited from earlier work

## CC(=O)N[C@@H](CC(C)C)C(=O)N[C@@H](CC(C)C)C(=O)N[C@H](C=O)CCCNC(=N)N [leupeptin]
Cathepsin B
  inhibition of cathepsin B: selectively inhibits cathepsin B

## Br.Cc1ncc(C)n2nc(CCc3nc(-c4ccccc4)cn3C)nc12 [hydrogen bromide (HBr), hydrogen bromide]
[1]
  cell killing: kills cells

## [Cl-].[Na+] [sodium chloride]
Dipeptide reagent
  inhibitory effect on dipeptide reagent: slightly inhibitory effect

## O[C@H](CS)[C@@H](O)CS [dithioerythritol (DTE), dithioerythritol]
[2]; 1 mM, Ala-Gly and Leu-Gly substrates
  sensitivity of the leaving group for the enzyme: does not change the sensitivity
[2]; 1 mM, Pro, Gly, Gln-Ser, Val-Lys-Val-Lys, Ala-Ala, Ala-Ala-Ala-Ala substrates
  sensitivity of the substituted rhodamine 110 substrates: decreases the sensitivity

## CC(C)C[C@H](N)C(=O)Nc1ccc2c(c1)Oc1cc(NC(=O)[C@@H](N)CC(C)C)ccc1C21OC(=O)c2ccccc21 [LEU, (Leu)2 Rho 110]
[3]
  amino peptidase activity: lost their enzymatic activity
Granulocytes [4]; P88 Enteritis
  aberrant enzyme activity, GRANS: + (>0.25 Increase over normal range)
Granulocytes [4]; P89 Viral Stomatitis
  aberrant enzyme activity, GRANS: + (>0.25 Increase over normal range)
Granulocytes [4]; P92 Adenitis
  aberrant enzyme activity, GRANS: + (>0.25 Increase over normal range)
Granulocytes [4]; P95 Viral Syndrome
  aberrant enzyme activity, GRANS: + (>0.25 Increase over normal range)
Granulocytes [4]; P96 Viral Syndrome
  aberrant enzyme activity, GRANS: + (>0.25 Increase over normal range)
Granulocytes [4]; P97 Pyelonephritis
  aberrant enzyme activity, GRANS: .smallcircle.
Granulocytes [4]; P99 Viral Syndrome
  aberrant enzyme activity, GRANS: .smallcircle.
Granulocytes [4]; P101 Fever -- Unknown Origin
  aberrant enzyme activity, GRANS: + (>0.25 Increase over normal range)
Granulocytes [4]; P102 UTI
  aberrant enzyme activity, GRANS: .smallcircle.
Granulocytes [4]; P103 Viral Syndrome
  aberrant enzyme activity, GRANS: + (>0.25 Increase over normal range)
Monocytes [5]; P88 Enteritis
  aberrant enzyme activity, MONOS: + (>0.25 Increase over normal range)
Monocytes [5]; P89 Viral Stomatitis
  aberrant enzyme activity, MONOS: + (>0.25 Increase over normal range)
Monocytes [5]; P92 Adenitis
  aberrant enzyme activity, MONOS: + (>0.25 Increase over normal range)
Monocytes [5]; P95 Viral Syndrome
  aberrant enzyme activity, MONOS: + (>0.25 Increase over normal range)
Monocytes [5]; P96 Viral Syndrome
  aberrant enzyme activity, MONOS: + (>0.25 Increase over normal range)
Monocytes [5]; P97 Pyelonephritis
  aberrant enzyme activity, MONOS: + (>0.25 Increase over normal range)
Monocytes [5]; P99 Viral Syndrome
  aberrant enzyme activity, MONOS: .smallcircle.
Monocytes [5]; P101 Fever -- Unknown Origin
  aberrant enzyme activity, MONOS: + (>0.25 Increase over normal range)
Monocytes [5]; P102 UTI
  aberrant enzyme activity, MONOS: .smallcircle.
Monocytes [5]; P103 Viral Syndrome
  aberrant enzyme activity, MONOS: + (>0.25 Increase over normal range)
Lymphocytes [6]; P88 Enteritis
  aberrant enzyme activity, LYMPHS: + (>0.25 Increase over normal range)
Lymphocytes [6]; P89 Viral Stomatitis
  aberrant enzyme activity, LYMPHS: + (>0.25 Increase over normal range)
Lymphocytes [6]; P92 Adenitis
  aberrant enzyme activity, LYMPHS: + (>0.25 Increase over normal range)
Lymphocytes [6]; P95 Viral Syndrome
  aberrant enzyme activity, LYMPHS: + (>0.25 Increase over normal range)
Lymphocytes [6]; P96 Viral Syndrome
  aberrant enzyme activity, LYMPHS: + (>0.25 Increase over normal range)
Lymphocytes [6]; P97 Pyelonephritis
  aberrant enzyme activity, LYMPHS: .smallcircle.
Lymphocytes [6]; P99 Viral Syndrome
  aberrant enzyme activity, LYMPHS: .smallcircle.
Lymphocytes [6]; P101 Fever -- Unknown Origin
  aberrant enzyme activity, LYMPHS: + (>0.25 Increase over normal range)
Lymphocytes [6]; P102 UTI
  aberrant enzyme activity, LYMPHS: .smallcircle.
Lymphocytes [6]; P103 Viral Syndrome
  aberrant enzyme activity, LYMPHS: + (>0.25 Increase over normal range)
[7]; HIV + PATIENTS
  MEAN DELTA FL: 130.5
[7]; NORMALS
  MEAN DELTA FL: 259.6

## [Ca+2].[Cl-].[Cl-] [calcium chloride]
Aminopeptidase [8]
  inhibitory to the enzyme reaction: inhibitory

## CC(=O)Oc1cc2c(cc1Cl)C(c1ccccc1C(=O)O)c1cc(Cl)c(OC(C)=O)cc1O2 [DCFH-DA MES, reference compound]
Granulocytes [4]; P88 Enteritis
  aberrant enzyme activity, GRANS: .smallcircle.
Granulocytes [4]; P89 Viral Stomatitis
  aberrant enzyme activity, GRANS: + (>0.25 Increase over normal range)
Granulocytes [4]; P92 Adenitis
  aberrant enzyme activity, GRANS: + (>0.25 Increase over normal range)
Granulocytes [4]; P95 Viral Syndrome
  aberrant enzyme activity, GRANS: + (>0.25 Increase over normal range)
Granulocytes [4]; P96 Viral Syndrome
  aberrant enzyme activity, GRANS: + (>0.25 Increase over normal range)
Granulocytes [4]; P97 Pyelonephritis
  aberrant enzyme activity, GRANS: + (>0.25 Increase over normal range)
Granulocytes [4]; P99 Viral Syndrome
  aberrant enzyme activity, GRANS: .smallcircle.
Granulocytes [4]; P101 Fever -- Unknown Origin
  aberrant enzyme activity, GRANS: + (>0.25 Increase over normal range)
Granulocytes [4]; P102 UTI
  aberrant enzyme activity, GRANS: .smallcircle.
Granulocytes [4]; P103 Viral Syndrome
  aberrant enzyme activity, GRANS: + (>0.25 Increase over normal range)
Monocytes [9]
  NORMAL LEUKOCYTE ENZYME ACTIVITY MONOS Mean: 12.28
Monocytes [5]; P88 Enteritis
  aberrant enzyme activity, MONOS: .smallcircle.
Monocytes [5]; P89 Viral Stomatitis
  aberrant enzyme activity, MONOS: + (>0.25 Increase over normal range)
Monocytes [5]; P92 Adenitis
  aberrant enzyme activity, MONOS: + (>0.25 Increase over normal range)
Monocytes [5]; P95 Viral Syndrome
  aberrant enzyme activity, MONOS: + (>0.25 Increase over normal range)
Monocytes [5]; P96 Viral Syndrome
  aberrant enzyme activity, MONOS: + (>0.25 Increase over normal range)
Monocytes [5]; P97 Pyelonephritis
  aberrant enzyme activity, MONOS: + (>0.25 Increase over normal range)
Monocytes [5]; P99 Viral Syndrome
  aberrant enzyme activity, MONOS: .smallcircle.
Monocytes [5]; P101 Fever -- Unknown Origin
  aberrant enzyme activity, MONOS: + (>0.25 Increase over normal range)
Monocytes [5]; P102 UTI
  aberrant enzyme activity, MONOS: .smallcircle.
Monocytes [5]; P103 Viral Syndrome
  aberrant enzyme activity, MONOS: + (>0.25 Increase over normal range)
Lymphocytes [10]
  NORMAL LEUKOCYTE ENZYME ACTIVITY LYMPHS Mean: 4.11
Lymphocytes [6]; P88 Enteritis
  aberrant enzyme activity, LYMPHS: .smallcircle.
Lymphocytes [6]; P89 Viral Stomatitis
  aberrant enzyme activity, LYMPHS: + (>0.25 Increase over normal range)
Lymphocytes [6]; P92 Adenitis
  aberrant enzyme activity, LYMPHS: + (>0.25 Increase over normal range)
Lymphocytes [6]; P95 Viral Syndrome
  aberrant enzyme activity, LYMPHS: + (>0.25 Increase over normal range)
Lymphocytes [6]; P96 Viral Syndrome
  aberrant enzyme activity, LYMPHS: + (>0.25 Increase over normal range)
Lymphocytes [6]; P97 Pyelonephritis
  aberrant enzyme activity, LYMPHS: .smallcircle.
Lymphocytes [6]; P99 Viral Syndrome
  aberrant enzyme activity, LYMPHS: .smallcircle.
Lymphocytes [6]; P101 Fever -- Unknown Origin
  aberrant enzyme activity, LYMPHS: + (>0.25 Increase over normal range)
Lymphocytes [6]; P102 UTI
  aberrant enzyme activity, LYMPHS: .smallcircle.
Lymphocytes [6]; P103 Viral Syndrome
  aberrant enzyme activity, LYMPHS: + (>0.25 Increase over normal range)
erythrocytes
  NORMAL E[…] ACTIVITY MEAN: 0.286
Granulocytes [11]
  NORMAL LEUKOCYTE ENZYME ACTIVITY GRANS Mean: 7.49

## O[C@H](CS)[C@H](O)CS [Dithiothreitol (DTT), Dithiothreitol]
[2]
  modulator effect: effective modulator

## CC(C)C[C@H](NC(=O)[C@@H](O)[C@H](N)Cc1ccccc1)C(=O)O [bestatin]
Aminopeptidase [12]
  inhibition of aminopeptidase: selectively inhibits aminopeptidase
